Data: patent US20120184532A1 (priority 2009, published 2012)
Values joined by “and” are separate entries in the source; they are usually repeats but may differ in a detail not shown here. Identical values can stand only once. “Also recorded” adds a separate entry of the source. Counter-ions that a name gives are not always drawn.

What was measured:
[1] = molecular target: T1, Acetylcholinesterase (h), human recombinant (HEK-293 cells) (Homo sapiens, UniProt P22303); experiment: In vitro human acetylcholine esterase inhibition; assay type: biochemical; details: in contrast to galantamine
T1 construct: host or cells: HEK-293 cells
T1 sequence (P22303 32-614): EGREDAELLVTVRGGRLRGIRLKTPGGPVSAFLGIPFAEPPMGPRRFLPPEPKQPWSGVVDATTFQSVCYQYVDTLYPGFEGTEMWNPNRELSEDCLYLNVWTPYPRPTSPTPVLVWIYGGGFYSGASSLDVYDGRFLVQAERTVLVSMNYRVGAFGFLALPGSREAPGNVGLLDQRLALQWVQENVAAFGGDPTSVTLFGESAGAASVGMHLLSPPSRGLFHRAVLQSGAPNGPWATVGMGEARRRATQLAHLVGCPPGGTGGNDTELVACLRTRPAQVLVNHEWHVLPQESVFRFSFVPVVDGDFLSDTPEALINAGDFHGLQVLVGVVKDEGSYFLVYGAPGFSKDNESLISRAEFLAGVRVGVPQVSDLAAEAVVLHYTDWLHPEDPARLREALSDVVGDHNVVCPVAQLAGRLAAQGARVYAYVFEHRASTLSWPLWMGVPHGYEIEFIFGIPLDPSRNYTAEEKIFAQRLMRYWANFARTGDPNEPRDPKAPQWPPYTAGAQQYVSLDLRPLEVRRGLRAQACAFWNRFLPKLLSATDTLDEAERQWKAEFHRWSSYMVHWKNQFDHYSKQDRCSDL

[2] = tested on: rabbit stomach circular smooth muscle; experiment: Ex vivo rabbit stomach circular smooth muscle, electrical field stimulation; details: rabbit stomach strips, EFS, 100 nM to 100 μM
[3] = tested on: human stomach circular smooth muscle; experiment: Ex vivo human stomach circular smooth muscle, electrical field stimulation; details: human stomach strips, EFS, 100 nM to 100 μM
ferret = experiment: Emetic activity (retching and vomiting) in the ferret; details: for Time (min) to onset of: Retching / Time (min) to onset of: Vomiting / Total number of individual incidences of: Retching / Total number of individual incidences of: Vomiting: 2 hr. observation; for animals dosed that retched / animals dosed that vomited: 20 mg (free base)/kg or similar molar dose, oral
Sprague Dawley rat = experiment: PICA behavior (kaolin consumption) as surrogate for emesis in the rat; assay type: in vivo; details: for rat kaolin consumption (g) over 24 h post-dose: single subcutaneous dose 3.5 mg base/kg
Procedure: This is a well established model for this purpose in the rat (Takeda N et al (1993) 45 817-21).
Once determined, a comparison was made of the effects of these doses on kaolin consumption over a 0-96 hour period in 24 h increments.
In detail groups of 10 male Sprague Dawley rats were habituated to kaolin for 3 days, then singly housed in grid-bottomed cages and habituated for a further 2 days prior to dosing. On the day of drug administration, the animals were food-deprived for 1 h prior to dosing. […] Access to a weighed quantity of food and kaolin was then restored. Food and kaolin was weighed 24, 48, 72 and 96 h after dosing.

rat = experiment: Comparative acute toxicity (behavior) of sc and po galantamine in the rat; assay type: in vivo; details: individual rats
[4] = 40 mg/kg as base p.o., individual animals
[5] = 20 mg/kg p.o., individual animals, listed as Galantamine HBr, hydrobromide, 20 mg/kg
[6] = 20 mg/kg p.o., individual animals, listed as Galantamine valine ester tartrate, 20 mg/kg

COc1ccc2c3c1O[C@H]1C[C@@H](OC(=O)CCCC(=O)Nc4ccc(C(=O)O)cc4)C=C[C@@]31CCN(C)C2 [Galantamine [glutaryl-PABA] ester]
inhibitory actions toward human acetylcholine esterase (in words) [1]: significantly less inhibitory actions

COc1ccc2c3c1O[C@H]1C[C@@H](OC(=O)CCC(=O)N[C@H](C(=O)O)C(C)C)C=C[C@@]31CCN(C)C2 [Galantamine succinyl valine ester]
stimulation of smooth muscle contractions (change in force production) [2]: complete absence of any such effect
stimulation of smooth muscle contractions (change in force production) [3]: complete absence of any such effect
Time (min) to onset of: Retching (ferret; 40 mg/kg as base p.o., Mean): >120 min
Time (min) to onset of: Vomiting (ferret; 40 mg/kg as base p.o., Mean): >120 min
Total number of individual incidences of: Retching (ferret; 40 mg/kg as base p.o., Mean): 0
Total number of individual incidences of: Vomiting (ferret; 40 mg/kg as base p.o., Mean): 0
Time (min) to onset of: Retching (ferret; [4]): >120 min
Time (min) to onset of: Vomiting (ferret; [4]): >120 min
Total number of individual incidences of: Retching (ferret; [4]): 0
Total number of individual incidences of: Vomiting (ferret; [4]): 0
retching or vomiting observed (in words) (ferret; oral 40 mg galantamine (free base equivs)/kg): no retching or vomiting at all
inhibitory actions toward human acetylcholine esterase (in words) [1]: significantly less inhibitory actions
Cumulative mean ± SD kaolin consumption (Sprague Dawley rat; 11.75 mg base/kg po (galantamine free base content), 24 h): 0.14 ± 0.20 g
Cumulative mean ± SD kaolin consumption (Sprague Dawley rat; 11.75 mg base/kg po (galantamine free base content), 48 h): 0.29 ± 0.24 g
Cumulative mean ± SD kaolin consumption (Sprague Dawley rat; 11.75 mg base/kg po (galantamine free base content), 72 h): 0.48 ± 0.27 g
Cumulative mean ± SD kaolin consumption (Sprague Dawley rat; 11.75 mg base/kg po (galantamine free base content), 96 h): 0.57 ± 0.40 g
Cumulative mean ± SD kaolin consumption (Sprague Dawley rat; 23.5 mg base/kg po (galantamine free base content), 24 h): 0.31 ± 0.53 g
Cumulative mean ± SD kaolin consumption (Sprague Dawley rat; 23.5 mg base/kg po (galantamine free base content), 48 h): 0.61 ± 0.69 g
Cumulative mean ± SD kaolin consumption (Sprague Dawley rat; 23.5 mg base/kg po (galantamine free base content), 72 h): 0.95 ± 0.96 g
Cumulative mean ± SD kaolin consumption (Sprague Dawley rat; 23.5 mg base/kg po (galantamine free base content), 96 h): 1.25 ± 1.31 g
Cumulative mean ± SD kaolin consumption (Sprague Dawley rat; 47 mg base/kg po (galantamine free base content), 24 h): 0.15 ± 0.18 g
Cumulative mean ± SD kaolin consumption (Sprague Dawley rat; 47 mg base/kg po (galantamine free base content), 48 h): 0.40 ± 0.18 g
Cumulative mean ± SD kaolin consumption (Sprague Dawley rat; 47 mg base/kg po (galantamine free base content), 72 h): 0.63 ± 0.28 g
Cumulative mean ± SD kaolin consumption (Sprague Dawley rat; 47 mg base/kg po (galantamine free base content), 96 h): 0.91 ± 0.45 g
Cumulative mean ± SD kaolin consumption (Sprague Dawley rat; 47 mg base/kg po (galantamine free base content), 96 h, listed as GSVE): 0.91 ± 0.45 g

COc1ccc2c3c1O[C@H]1C[C@@H](O)C=C[C@@]31CCN(C)C2 [Galantamine, (4aS,6R,8aS)-4a,5,9,10,11,12-hexahydro-3-methoxy-11-methyl-6H-benzofuro[3a,3,2ef][2]benzazepin-6-ol hydrobromide]
rat behavior (rat; 3.5 mg/kg sc, 2 min post dose, hydrobromide): Rat 1: purposeless chewing, mouth; also recorded: Rat 3: purposeless chewing, mouth
rat behavior (rat; 3.5 mg/kg sc, 5 min post-dose, hydrobromide): Rat 3: As per 2 min; also recorded: Rat 1: purposeless chewing, mouth
rat behavior (rat; 3.5 mg/kg sc, 10 min post-dose, hydrobromide): Rat 1: Tremors, flattened rostral body; also recorded: Rat 3: purposeless chewing, mouth
rat behavior (rat; 3.5 mg/kg sc, 20 min post-dose, hydrobromide): Rat 1: Quiescent, flattened body posture,; also recorded: Rat 3: Some ambulation restored
rat behavior (rat; 3.5 mg/kg sc, 30 min post-dose, hydrobromide): Rat 1: Quiescent, flattened body posture,; also recorded: Rat 3: Some ambulation restored
rat behavior (rat; 3.5 mg/kg sc, 45 min post-dose): Rat 1: food consumption and more
rat behavior (rat; 3.5 mg/kg sc, 1 h, hydrobromide): Rat 1: Normal; also recorded: Rat 3: Normal
rat behavior (rat; 40 mg/kg po, 10 min post-dose, hydrobromide): Rat 6: Quiescent, purposeless; also recorded: Rat 7: Quiescent, purposeless chewing,
rat behavior (rat; 40 mg/kg po, 20 min post-dose, hydrobromide): Ratc 6 as per 10 min + arching; also recorded: Rat 7: grooming + purposeless
rat behavior (rat; 40 mg/kg po, 30 min post-dose): Rat 6: quiescent, purposeless chewing,
rat behavior (rat; 40 mg/kg po, 45 min post-dose, hydrobromide): Rat 6: flattened body posture, chewing,; also recorded: Rat 7: grooming, sawdust consumption
rat behavior (rat; 40 mg/kg po, 1 h, hydrobromide): Rat 6: flattened body posture, tremor; also recorded: Rat 7: Grooming, sawdust
rat behavior (rat; 40 mg/kg po, 1.5 h, hydrobromide): Rat 7: quiet, falttened posture
rat behavior (rat; 40 mg/kg po, 2 h, hydrobromide): Rat 6: much improved; also recorded: Rat 7: much improved
rat behavior (rat; 40 mg/kg po, 3 h, hydrobromide): Rat 6: normal; also recorded: Rat 7: normal
stimulation of smooth muscle contractions (change in force production) [2]: evidence of a dose response
stimulation of smooth muscle contractions (change in force production) [3]: evidence of a dose response
animals dosed that retched (ferret): 55%
animals dosed that vomited (ferret): 40%
Time (min) to onset of: Retching (ferret; [5]): 6 min (2×) and 33 min and 3 min and 5 min (3×) and >120 min (8×) and 41 min and 11 min and 10 min and 7 min (2×)
Time (min) to onset of: Vomiting (ferret; [5]): 41 min and 33 min and 75 min and 5 min (2×) and >120 min (11×) and 37 min and 10 min and 13 min and 6 min
Total number of individual incidences of: Retching (ferret; [5]): 22 and 21 and 29 and 18 and 0 (9×) and 31 and 3 (2×) and 6 and 2 and 5 and 13
Total number of individual incidences of: Vomiting (ferret; [5]): 1 (6×) and 4 (2×) and 0 (11×) and 2
rat kaolin consumption (g) over 24 h post-dose (Sprague Dawley rat; Mean): 0.25 g
rat kaolin consumption (g) over 24 h post-dose (Sprague Dawley rat; individual rats, hydrobromide): 0.67 g and 0.36 g and 0.88 g and 0.08 g and 0.00 g (3×) and 0.21 g and 0.05 g

COc1ccc2c3c1O[C@H]1C[C@@H](OC(=O)[C@@H](N)C(C)C)C=C[C@@]31CCN(C)C2 [Galantamine-(S)-valine ester, galantamine-(S)-valine ester tartrate]
animals dosed that retched (ferret): 45%
animals dosed that vomited (ferret): 18%
Total number of individual incidences of: Retching (ferret; 20 mg/kg p.o., Mean): 3.9
Time (min) to onset of: Retching (ferret; [6]): >120 min (6×) and 35 min and 11 min and 9 min and 6 min
Time (min) to onset of: Vomiting (ferret; [6]): >120 min (9×) and 44 min and 9 min
Total number of individual incidences of: Retching (ferret; [6]): 0 (6×) and 22 and 2 (2×) and 3 and 14
Total number of individual incidences of: Vomiting (ferret; [6]): 0 (9×) and 1 and 3
